# Earlier results, collected in US6284262A, “Compact dosage unit for buccal administration of a pharmacologically active agent” (priority 1999, dated 2001).
# Tests used:
# [1] = system: sex hormone-binding protein; conditions: plasma, adult men
# [2] = system: albumin and other proteins; conditions: plasma, adult men
compound,measurement,setting,value
C[C@]12CC[C@H]3[C@@H](CCC4=CC(=O)CC[C@@]43C)[C@@H]1CC[C@@H]2O [testosterone],testosterone bound to sex hormone-binding protein,[1],Approximately 40%
same,bound to albumin and other proteins,[2],the remainder
same,"free, or unbound testosterone",[2],about 2%
same,absorption after oral administration,,well absorbed
same,therapeutic blood levels via oral administration,,not possible to achieve therapeutic blood levels
same,degradation during passage through the liver and intestine,oral,quickly degraded
